Measurements: ChEMBL document CHEMBL1201862, “PubChem BioAssay data set” (2004)
“And” between values parts separate entries of the source, which are not always exact repeats. Equal values may be shown once.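 Growth conditions: 96-well plates. Treatment: test compound, 48 hours, 5 concentrations. Analysis: linear interpolation between bracketing concentrations; unreached endpoints set to highest concentration. At the GI50, growth is halved.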 The source made the active and inactive calls. No stated cut-off is given here; in the data, active = GI50 up to about 1.1 µM and inactive = higher.

What was measured:
Assay in all cases: NCI anticancer screen, dose series, 48 h
[1] = system: 786-0
[2] = system: A549
[3] = system: ACHN
[4] = system: CAKI-1
[5] = system: COLO 205
[6] = system: DU-145
[7] = system: EKVX
[8] = system: HCT-116
[9] = system: HCT-15
[10] = system: HL-60
[11] = system: HOP-62
[12] = system: HT-29
[13] = system: Hs-578T
[14] = system: IGROV-1
[15] = system: K562
[16] = system: KM12
[17] = system: LOX IMVI
[18] = system: M14
[19] = system: MCF7
[20] = system: MDA-MB-231
[21] = system: MDA-MB-435
[22] = system: MOLT-4
[23] = system: Malme-3M
[24] = system: NCI-H226
[25] = system: NCI-H23
[26] = system: NCI-H460
[27] = system: NCI-H522
[28] = system: NCI/ADR-RES
[29] = system: OVCAR-3
[30] = system: OVCAR-4
[31] = system: OVCAR-5
[32] = system: OVCAR-8
[33] = system: PC-3
[34] = system: RXF 393
[35] = system: SF-268
[36] = system: SF-295
[37] = system: SF-539
[38] = system: SK-MEL-28
[39] = system: SK-MEL-2
[40] = system: SK-MEL-5
[41] = system: SK-OV-3
[42] = system: SN12C
[43] = system: SNB-19
[44] = system: SNB-75
[45] = system: SR
[46] = system: SW-620
[47] = system: T47D
[48] = system: TK-10
[49] = system: U-251
[50] = system: UACC-257
[51] = system: UACC-62
[52] = system: UO-31
[53] = system: HOP-92
[54] = system: MDA-N
[55] = system: A498
[56] = system: CCRF-CEM
[57] = system: RPMI-8226
[58] = system: HCC 2998

## OCN(CO)c1ccc2c(c1)Cc1cc(F)ccc1-2
[1]
  GI50: 30.1 µM (inactive)
[2]
  GI50: 21.9 µM (inactive)
[3]
  GI50: 17.6 µM (inactive)
[4]
  GI50: 20 µM (inactive)
[5]
  GI50: 12.4 µM (inactive)
[6]
  GI50: 23.2 µM (inactive)
[7]
  GI50: 14.7 µM (inactive)
[8]
  GI50: 39.5 µM (inactive)
[9]
  GI50: 19.2 µM
[10]
  GI50: 29.1 µM (inactive)
[11]
  GI50: 44.1 µM (inactive)
[12]
  GI50: 14.8 µM (inactive)
[13]
  GI50: 12 µM (inactive)
[14]
  GI50: 19.3 µM (inactive)
[15]
  GI50: 20.9 µM (inactive)
[16]
  GI50: 17.8 µM (inactive)
[17]
  GI50: 17.9 µM (inactive)
[18]
  GI50: 21 µM (inactive)
[19]
  GI50: 18.6 µM (inactive)
[20]
  GI50: 16.4 µM (inactive)
[21]
  GI50: 18.1 µM (inactive)
[22]
  GI50: 25.2 µM (inactive)
[23]
  GI50: 18.1 µM (inactive)
[24]
  GI50: 15.7 µM (inactive)
[25]
  GI50: 33.3 µM (inactive)
[26]
  GI50: 24.7 µM (inactive)
[27]
  GI50: 19.5 µM (inactive)
[28]
  GI50: 20.2 µM (inactive)
[29]
  GI50: 13.9 µM (inactive)
[30]
  GI50: 17.8 µM (inactive)
[31]
  GI50: 19.1 µM (inactive)
[32]
  GI50: 19.7 µM (inactive)
[33]
  GI50: 16.7 µM (inactive)
[34]
  GI50: 24 µM (inactive)
[35]
  GI50: 23.8 µM (inactive)
[36]
  GI50: 15.3 µM (inactive)
[37]
  GI50: 22.3 µM (inactive)
[38]
  GI50: 24 µM (inactive)
[39]
  GI50: 21 µM (inactive)
[40]
  GI50: 11.2 µM (inactive)
[41]
  GI50: 25.2 µM (inactive)
[42]
  GI50: 18.2 µM (inactive)
[43]
  GI50: 17.9 µM (inactive)
[44]
  GI50: 19.1 µM (inactive)
[45]
  GI50: 22.6 µM (inactive)
[46]
  GI50: 12.4 µM (inactive)
[47]
  GI50: 17.8 µM (inactive)
[48]
  GI50: 18.7 µM (inactive)
[49]
  GI50: 17.9 µM (inactive)
[50]
  GI50: 18.7 µM (inactive)
[51]
  GI50: 16.6 µM (inactive)
[52]
  GI50: 19.6 µM (inactive)

## O=C1CC(CC(OCc2ccccc2)C(OCc2ccccc2)C(COCc2ccccc2)OCc2ccccc2)CC(=O)N1 (stereo unspecified)
[53]
  GI50: > 100 µM (inactive)
[12]
  GI50: 4.53 µM (inactive)
[20]
  GI50: 8.67 µM (inactive)
[47]
  GI50: > 10 µM (inactive)
[48]
  GI50: > 100 µM (inactive) and 81.8 µM (inactive)

## CC(CN(C)C)Nc1c2ccccc2nc2cccc([N+](=O)[O-])c12 (stereo unspecified)
[10]
  GI50: 0.203 µM (active)
[54]
  GI50: 0.23 µM (active)
[27]
  GI50: 0.0268 µM (active)

## CN(C)CCNC(=O)c1cccc2c(NC(CCCNC(=N)N)C(=O)O)c3ccccc3nc12 (stereo unspecified)
[1]
  GI50: 7.52 µM (inactive)
[55]
  GI50: 19.8 µM (inactive)
[2]
  GI50: 4.8 µM (inactive)
[3]
  GI50: 2.79 µM (inactive)
[56]
  GI50: 15.3 µM (inactive)
[5]
  GI50: 6.22 µM (inactive)
[6]
  GI50: 17 µM (inactive)
[7]
  GI50: 3.48 µM (inactive)
[8]
  GI50: 3.93 µM (inactive)
[9]
  GI50: 6.37 µM
[10]
  GI50: > 100 µM (inactive)
[11]
  GI50: 9.73 µM (inactive)
[53]
  GI50: 3.85 µM (inactive)
[12]
  GI50: 2.7 µM (inactive)
[13]
  GI50: 11.4 µM (inactive)
[14]
  GI50: 4.59 µM (inactive)
[15]
  GI50: 5.68 µM (inactive)
[16]
  GI50: 7.26 µM (inactive)
[17]
  GI50: 3.85 µM (inactive)
[18]
  GI50: 14 µM (inactive)
[19]
  GI50: 5.27 µM (inactive)
[20]
  GI50: 9.27 µM (inactive)
[21]
  GI50: 10.1 µM (inactive)
[54]
  GI50: 14 µM (inactive)
[22]
  GI50: 3.89 µM (inactive)
[23]
  GI50: 3.86 µM (inactive)
[24]
  GI50: 3.88 µM (inactive)
[25]
  GI50: 5.53 µM (inactive)
[27]
  GI50: 3.75 µM (inactive)
[28]
  GI50: 3.75 µM (inactive)
[29]
  GI50: 18.1 µM (inactive)
[30]
  GI50: 5.09 µM (inactive)
[31]
  GI50: 9.95 µM (inactive)
[32]
  GI50: 4.13 µM (inactive)
[33]
  GI50: 9.1 µM (inactive)
[57]
  GI50: 6.59 µM (inactive)
[35]
  GI50: 9.2 µM (inactive)
[36]
  GI50: 7.57 µM (inactive)
[38]
  GI50: 25.7 µM (inactive)
[39]
  GI50: 13.8 µM (inactive)
[40]
  GI50: 6.05 µM (inactive)
[41]
  GI50: 12.6 µM (inactive)
[42]
  GI50: 10.5 µM (inactive)
[43]
  GI50: 3.94 µM (inactive)
[44]
  GI50: 8.83 µM (inactive)
[45]
  GI50: 1 µM (active)
[46]
  GI50: 5.4 µM (inactive)
[48]
  GI50: 21.1 µM (inactive)
[49]
  GI50: 14.3 µM (inactive)
[51]
  GI50: 15.8 µM (inactive)
[52]
  GI50: 2.82 µM (inactive)

## O=P(O)(O)C=C=C1CCCCC1
[1]
  GI50: > 100 µM (inactive)
[55]
  GI50: > 100 µM (inactive)
[2]
  GI50: > 100 µM (inactive)
[3]
  GI50: > 100 µM (inactive)
[4]
  GI50: > 100 µM (inactive)
[5]
  GI50: > 100 µM (inactive)
[6]
  GI50: > 100 µM (inactive)
[7]
  GI50: > 100 µM (inactive)
[58]
  GI50: > 100 µM (inactive)
[8]
  GI50: > 100 µM (inactive)
[9]
  GI50: > 100 µM
[10]
  GI50: 24.3 µM (inactive)
[11]
  GI50: > 100 µM (inactive)
[53]
  GI50: > 100 µM (inactive)
[12]
  GI50: > 100 µM (inactive)
[13]
  GI50: > 100 µM (inactive)
[14]
  GI50: > 100 µM (inactive)
[15]
  GI50: > 100 µM (inactive)
[16]
  GI50: > 100 µM (inactive)
[17]
  GI50: > 100 µM (inactive)
[18]
  GI50: > 100 µM (inactive)
[19]
  GI50: > 100 µM (inactive)
[21]
  GI50: > 100 µM (inactive)
[54]
  GI50: > 100 µM (inactive)
[23]
  GI50: > 100 µM (inactive)
[24]
  GI50: > 100 µM (inactive)
[25]
  GI50: > 100 µM (inactive)
[26]
  GI50: > 100 µM (inactive)
[27]
  GI50: > 100 µM (inactive)
[28]
  GI50: > 100 µM (inactive)
[29]
  GI50: > 100 µM (inactive)
[30]
  GI50: > 100 µM (inactive)
[31]
  GI50: > 100 µM (inactive)
[32]
  GI50: > 100 µM (inactive)
[33]
  GI50: > 100 µM (inactive)
[34]
  GI50: > 100 µM (inactive)
[35]
  GI50: > 100 µM (inactive)
[36]
  GI50: > 100 µM (inactive)
[37]
  GI50: > 100 µM (inactive)
[38]
  GI50: > 100 µM (inactive)
[39]
  GI50: > 100 µM (inactive)
[40]
  GI50: > 100 µM (inactive)
[41]
  GI50: > 100 µM (inactive)
[42]
  GI50: > 100 µM (inactive)
[43]
  GI50: > 100 µM (inactive)
[44]
  GI50: > 100 µM (inactive)
[45]
  GI50: > 100 µM (inactive)
[46]
  GI50: > 100 µM (inactive)
[47]
  GI50: > 100 µM (inactive)
[48]
  GI50: > 100 µM (inactive)
[49]
  GI50: > 100 µM (inactive)
[50]
  GI50: > 100 µM (inactive)
[51]
  GI50: > 100 µM (inactive)

## COC(=O)C1c2cc3c(c(O)c2CCC1(C)O)C(=O)c1c(O)cc2c(c1C3=O)OC1OC2(C)C(O)C(N(C)C)C1O (stereo unspecified)
[1]
  GI50: 1.03 µM (active)
[2]
  GI50: 0.186 µM (active)
[3]
  GI50: 0.172 µM (active)
[4]
  GI50: < 0.01 µM (active)
[5]
  GI50: 0.36 µM (active)
[6]
  GI50: 0.139 µM (active)
[7]
  GI50: 0.146 µM (active)
[8]
  GI50: 0.245 µM (active)
[9]
  GI50: 0.394 µM
[10]
  GI50: 1.36 µM (inactive)
[11]
  GI50: 0.254 µM (active)
[12]
  GI50: 0.205 µM (active)
[13]
  GI50: 0.338 µM (active)
[14]
  GI50: 1.02 µM (active)
[15]
  GI50: 0.223 µM (active)
[16]
  GI50: 0.345 µM (active)
[17]
  GI50: 0.226 µM (active)
[18]
  GI50: 1.75 µM (inactive)
[19]
  GI50: 0.8 µM (active)
[20]
  GI50: 0.207 µM (active)
[21]
  GI50: 1.01 µM (active)
[22]
  GI50: 0.121 µM (active)
[23]
  GI50: 0.162 µM (active)
[24]
  GI50: 0.0112 µM (active)
[25]
  GI50: 0.562 µM (active)
[26]
  GI50: 0.452 µM (active)
[27]
  GI50: 1.1 µM (active)
[28]
  GI50: 1.61 µM (inactive)
[29]
  GI50: 0.0991 µM (active)
[30]
  GI50: 0.158 µM (active)
[31]
  GI50: 0.263 µM (active)
[32]
  GI50: 0.101 µM (active)
[33]
  GI50: 0.474 µM (active)
[34]
  GI50: 0.205 µM (active)
[35]
  GI50: 0.906 µM (active)
[36]
  GI50: 0.382 µM (active)
[37]
  GI50: 1.4 µM (inactive)
[38]
  GI50: 3.15 µM (inactive)
[39]
  GI50: 4.76 µM (inactive)
[40]
  GI50: 0.385 µM (active)
[41]
  GI50: 1.91 µM (inactive)
[42]
  GI50: 0.543 µM (active)
[43]
  GI50: 0.221 µM (active)
[44]
  GI50: 0.198 µM (active)
[45]
  GI50: < 0.01 µM (active)
[46]
  GI50: 0.14 µM (active)
[47]
  GI50: 0.274 µM (active)
[48]
  GI50: 0.369 µM (active)
[49]
  GI50: 0.436 µM (active)
[50]
  GI50: 0.108 µM (active)
[51]
  GI50: 0.421 µM (active)
[52]
  GI50: 1.4 µM (inactive)
